From patent US20200405699A1, “TREATING SICKLE CELL DISEASE WITH A PYRUVATE KINASE R ACTIVATING COMPOUND” (FORMA Therapeutics, Inc., priority 2018, published 2020) come the findings set out here.

Read-outs that look alike come from different tables or passages of the source. Where only a bound is given, the exact number is not on record here.

Series [1] is described as follows: SAD/MAD/food effect study in healthy volunteers, pharmacokinetics. It counts as in vivo, human. The source says:
This is a first-in-human (FIH), Phase 1 study of Compound 1 that will characterize the safety, PK, and PD of Compound 1 after a single dose and after repeated dosing first in healthy adult volunteers and then in adolescents or adults with sickle cell disease. Initially, a dose range of Compound 1 in single ascending dose (SAD) escalation cohorts will be explored in healthy subjects. Enrollment of healthy subjects into 2-week multiple ascending dose (MAD) escalation cohorts will be initiated once the safety and PK from at least two SAD cohorts is available to inform the doses for the 2-week MAD portion of the study. The MAD cohorts will then run in parallel to the single dose cohorts. A single dose cohort is planned to understand food effects (FE) on the PK of Compound 1. […] Multiple dose studies in SCD subjects will then be initiated upon completion of MAD studies in healthy volunteers. Compound 1 will be administered in 25 mg and 100 mg tablets delivered orally.
Four healthy SAD cohorts were evaluated at doses of 200, 400, 700, and 1000 mg, and four healthy MAD cohorts received 200 to 600 mg total daily doses for 14 days at QD or BID dosing (100 mg BID, 200 mg BID, 300 mg BID, and 400 mg QD). In the food effect (FE) cohort, 10 healthy subjects received 200 mg of Compound 1 QD with and without food.

The target of series [2] is PKR(G332S) (Homo sapiens, UniProt P30613, G332S). Description: Luminescence Assay (Kinase Glo Plus), PKR G332S. It counts as biochemical. The following applies: read-out: AC50 (PKRG332S). The procedure: For each tested compound, the ability to activate PKR was determined using the following Luminescence Assay. The effect of phosphorylation of adenosine-5′-diphosphate (ADP) by PKR is determined by the Kinase Glo Plus Assay (Promega) in the presence or absence of FBP (D-fructose-1,6-diphosphate; BOC Sciences, CAS: 81028-91-3) as follows. Unless otherwise indicated, all reagents are purchased from Sigma-Aldrich. All reagents are prepared in buffer containing 50 mM Tris-HCl, 100 mM KCl, 5 mM MgCl2, and 0.01% Triton X100, 0.03% BSA, and 1 mM DTT. Enzyme and PEP (phosphoenolpyruvate) are added at 2× to all wells of an assay-ready plate containing serial dilutions of test compounds or DMSO vehicle. Final enzyme concentrations for PKR(wt), PKR(R510Q), and PKR(G332S) are 0.8 nM, 0.8 nM, and 10 nM respectively. Final PEP concentration is 100 μM. The Enzyme/PEP mixture is incubated with compounds for 30 minutes at RT before the assay is initiated with the addition of 2×ADP and KinaseGloPlus. Final concentration of ADP is 100 μM. […] For assays containing FBP, that reagent is added at 30 μM upon reaction initiation. Reactions are allowed to progress for 45 minutes at RT until luminescence is recorded by the BMG PHERAstar FS Multilabel Reader. The compound is tested in triplicate at concentrations ranging from 42.5 μM to 2.2 nM in 0.83% DMSO. AC50 measurements were obtained by the standard four parameter fit algorithm of ActivityBase XE Runner (max, min, slope and AC50). The AC50 value for a compound is the concentration (μM) at which the activity along the four parameter logistic curve fit is halfway between minimum and maximum activity.
As set forth in Tables 2 and 3 below and in FIG. 1, AC50 values are defined as follows: ≤0.1 μM (+++); >0.1 μM and ≤1.0 μM (++); >1.0 μM and ≤40 μM (+); >40 μM (0).

For series [3], the system named is ATP blood levels. Kind of series: SAD/MAD study in healthy volunteers, blood ATP levels (LC-MS/MS). It counts as in vivo, human. The following applies: MAD cohorts, 60 hours after the last dose. The source says:
This is a first-in-human (FIH), Phase 1 study of Compound 1 that will characterize the safety, PK, and PD of Compound 1 after a single dose and after repeated dosing first in healthy adult volunteers and then in adolescents or adults with sickle cell disease. Initially, a dose range of Compound 1 in single ascending dose (SAD) escalation cohorts will be explored in healthy subjects. Enrollment of healthy subjects into 2-week multiple ascending dose (MAD) escalation cohorts will be initiated once the safety and PK from at least two SAD cohorts is available to inform the doses for the 2-week MAD portion of the study. The MAD cohorts will then run in parallel to the single dose cohorts. […]
Four healthy SAD cohorts were evaluated at doses of 200, 400, 700, and 1000 mg, and four healthy MAD cohorts received 200 to 600 mg total daily doses for 14 days at QD or BID dosing (100 mg BID, 200 mg BID, 300 mg BID, and 400 mg QD). […]
In the MAD cohorts, the subjects' blood ATP levels were measured on day 14 by a qualified LC-MS/MS method for the quantitation of ATP in blood. […] Table 14 reports the median percentage change in blood ATP levels, relative to baseline, measured over time after the first dose on day 14 in healthy volunteers who received daily doses of Compound 1 (100 mg BID, or 200 mg BID) or placebo for 14 days. […]

Series [4] concerns the target T1, wt-PKR in mature human erythrocytes (Homo sapiens, UniProt P30613).
T1 construct: evaluated in purified RBCs purchased from Research Blood Components; host or cells: purified human red blood cells from donors
Description: PKR activation in human red blood cells ex vivo (Biovision Pyruvate Kinase Assay). The class given is cell-based. Particulars: human RBCs. How it is done: The activation of wt-PKR by Compound 1 in mature human erythrocytes ex vivo was evaluated in purified RBCs purchased from Research Blood Components. Cells treated with Compound 1 for 3 hr in glucose-containing media were washed, lysed, and assayed using a Biovision Pyruvate Kinase Assay (K709-100). The assay was repeated multiple times to account for donor-to-donor variability and the relatively narrow dynamic range.

Series [5] addresses PKR-R510Q (Homo sapiens, UniProt P30613, R510Q). Description: Enzyme assay of Example 3 (kinetic parameters, activation), PKR-R510Q. The following applies: for Vmax (normalized): 2 μM Compound 1, normalized within row. The class given is biochemical. How it is done: Tests were conducted in the presence and absence of fructose-1,6-bisphosphate (FBP), a known allosteric activator of PKR.

Series [6] has as its target T2, PKR in mouse RBCs (Mus musculus, UniProt P53657).
T2 construct: Mouse RBCs were isolated fresh from whole blood using a Ficoll gradient; endogenous in cells; host or cells: mouse red blood cells isolated fresh from whole blood
Kind of series: PKR activation in mouse red blood cells. The class given is cell-based. From the text:
Mouse RBCs were isolated fresh from whole blood using a Ficoll gradient and assayed with methods similar to those used in the human RBCs assays.

Sequence of PKR-R510Q (P30613 whole entry R510Q): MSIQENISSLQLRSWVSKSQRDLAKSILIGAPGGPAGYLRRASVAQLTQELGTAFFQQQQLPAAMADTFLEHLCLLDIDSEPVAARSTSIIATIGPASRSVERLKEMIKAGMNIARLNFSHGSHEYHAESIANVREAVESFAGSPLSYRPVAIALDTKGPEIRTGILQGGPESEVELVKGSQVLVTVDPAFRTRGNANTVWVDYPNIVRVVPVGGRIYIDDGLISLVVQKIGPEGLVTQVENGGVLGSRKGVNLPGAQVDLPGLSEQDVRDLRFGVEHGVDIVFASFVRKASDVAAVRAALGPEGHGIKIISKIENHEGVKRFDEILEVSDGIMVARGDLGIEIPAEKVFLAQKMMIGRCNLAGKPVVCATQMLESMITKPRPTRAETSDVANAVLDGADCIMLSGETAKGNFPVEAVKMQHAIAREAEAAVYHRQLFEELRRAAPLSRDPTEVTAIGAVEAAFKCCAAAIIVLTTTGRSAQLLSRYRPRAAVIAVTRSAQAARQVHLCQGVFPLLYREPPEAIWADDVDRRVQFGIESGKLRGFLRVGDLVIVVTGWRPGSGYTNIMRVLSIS
T1 sequence (P30613 whole entry): as the sequence (P30613 whole entry R510Q) above, with Q510R counted along it
T2 sequence (P53657 whole entry): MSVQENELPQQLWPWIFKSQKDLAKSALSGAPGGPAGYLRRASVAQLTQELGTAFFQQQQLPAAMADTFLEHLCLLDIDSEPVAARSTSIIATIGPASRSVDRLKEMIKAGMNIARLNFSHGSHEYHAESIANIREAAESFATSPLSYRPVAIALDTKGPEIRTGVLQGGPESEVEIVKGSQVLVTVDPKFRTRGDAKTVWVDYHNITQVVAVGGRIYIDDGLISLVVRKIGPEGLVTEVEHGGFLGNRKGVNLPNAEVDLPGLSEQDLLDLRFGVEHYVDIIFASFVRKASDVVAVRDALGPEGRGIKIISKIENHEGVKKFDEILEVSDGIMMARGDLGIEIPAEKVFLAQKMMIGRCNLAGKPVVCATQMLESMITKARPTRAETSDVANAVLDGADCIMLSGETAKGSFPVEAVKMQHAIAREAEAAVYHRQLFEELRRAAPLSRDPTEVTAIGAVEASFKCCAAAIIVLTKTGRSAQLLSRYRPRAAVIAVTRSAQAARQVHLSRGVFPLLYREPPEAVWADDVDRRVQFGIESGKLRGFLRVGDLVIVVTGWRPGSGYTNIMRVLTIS
Sequence of PKR(G332S) (P30613 whole entry G332S): as the sequence (P30613 whole entry R510Q) above, with G332S, Q510R counted along it

The term AC50 denotes the concentration giving half of the maximal activity seen. For orientation: EC50 means the concentration giving half of the maximal effect. As to `O=C([C@H](CO)c1ccccc1)N1CC2=C(C1)CN(S(=O)(=O)c1cnc3c(c1)OCCO3)C2` (single isomer, unassigned) [Compound 1], the “PK linearity, multiple doses” value in series [1] (100-300 mg BID, 400 mg QD) was “linear PK”. In series [1] (human, plasma, healthy volunteers, oral, postdose, read-out: Median Tmax), the Tmax amounted to 1 h. For the same compound, in series [1] (single doses ≥700 mg), the “Dose dependence of single dose exposure” value is listed as “greater than dose-proportional”. The results for the half-maximal activity concentration (AC50) in series [2] and in series [5] (PEP at or below Km) were 100 to 1000 nM and less than 100 nM, respectively. Besides, the “ATP levels relative to baseline after last dose” value in series [3] is “remained elevated”. For the same compound, the half-maximal effective concentration (EC50) in series [4] (3 hr treatment, individual replicates) was less than 50 nM; in series [6] (individual replicates, read-out: EC50), less than 125 nM; in series [6] (mean of replicates, read-out: EC50 (nM), Mean), less than 125 nM. Further, the “Max-Min (%), Mean (mean maximum activation increase)” value in series [4] (mean of replicates) is reported as less than 100%. For the same compound, the Emax in series [4] (mean of replicates, read-out: Max-Min (%), Mean (mean maximum activation increase)) was less than 100%. For the same compound, the “Vmax (normalized)” value is 1.29 in series [5] (30 μM FBP) and 1.56 in series [5] (No FBP). Further, in series [5] (PEP at or below Km, rate of ATP formation), the “Maximum-fold Activation” value is given as less than 3.0.
